Measurements as given in patent US12144872B1, “Modified nanodelivery system and method for enhanced in vivo medical and preclinical imaging” (Florida A&M University, priority 2012, dated 2024).

Tested on: 4T1-luc tumor models
Assay: In vivo bioluminescence/fluorescence imaging and kinetics in luciferase-expressing tumor models
Details: mice, 150 mg/kg luciferin solution
Procedure: All the cell lines were modified for the luciferase reporter gene expression.
Trypsinization was stopped with medium containing 10% FBS. The cells were centrifuged, and the floating cells in the supernatant were discarded. The cell pellet was resuspended in medium containing 10% FBS and mixed thoroughly. Trypan blue staining was used to determine the number of viable cells. The resuspended cells were centrifuged, and cell dilutions of 2±10^6 cells/100 μl were prepared in growth medium. The 100 μl of cell suspension was injected subcutaneously into the right flank area of each mouse. The mice were randomized into control and treatment groups when xenografts were palpable with a tumor size of 50 mm^3.
The orthotopic tumor model was used to mimic the cancer in humans in athymic nu/nu mice (6-week old). […] Only cell suspensions of >90% viability, as determined by trypan blue exclusion, were used. […]
Nu/Nu mice were anesthetized and tumor cells (2 million per mouse) were injected via tail vein. Only cell suspensions of >90% viability, as determined by trypan blue exclusion, were used. […]
Imaging was performed with an IVIS Spectrum (16). Bioluminescent signals were quantified using Living Image® software (Caliper Life Sciences., Alameda, CA.).
Imaging was performed with an IVIS SpectrumCT (35). Bioluminescent signals were quantified using Living Image® software (Caliper Life Sciences., Alameda, CA.).

**Q.** With O=C(O)[C@H]1CSC(c2nc3ccc(O)cc3s2)=N1 [Free luciferin, luciferin] as the compound, how does the “time to clearance from circulation” value read?
**A.** ≤ 60 min
